# Results published in patent publication US11083724B2, “Rimegepant for CGRP related disorders” (Biohaven Pharmaceutical Holding Company Ltd., priority 2018, dated 2021).
# Tested on: subjects with Acute Migraines
# Experiment: Study 302 (BHV3000-302, NCT03237845): Phase 3 double-blind placebo-controlled trial, rimegepant 75 mg tablet, acute treatment of migraine
# Type: in vivo, human
# Conditions: for Percent (%) difference of Patients Pain Free: Rimegepant versus Placebo: no rescue meds, Kaplan-Meier estimates; for Freedom from MBS at 2 hours / Pain Freedom (pain-free) at 2 hours: N = 537
# Protocol: Clinical Trial—BHV3000-302: Phase 3: Double-Blind, Randomized, Placebo-Controlled, Safety and Efficacy Trial of BHV-3000 (Rimegepant) for the Acute Treatment of Migraine (ClinicalTrials.gov Identifier: NCT03237845) A phase 3 clinical study was conducted with 1503 participants, as follows. The purpose of this study is to compare the efficacy of BHV-3000 (rimegepant) versus placebo in subjects with Acute Migraines Study Design • Study Type: Interventional (Clinical Trial) • Actual Enrollment: 1503 participants • Allocation: Randomized • Intervention Model: Parallel Assignment • Intervention Model Description: Double-blind to Sponsor, Investigator and Subject • Masking: Triple (Participant, Care Provider, Investigator) • Masking Description: Double-blind to Sponsor, Investigator and Subject • Primary Purpose: Treatment • Official Title: BHV3000-302: Phase 3: Double-Blind, Randomized, Placebo-Controlled, Safety and Efficacy Trial of BHV-3000 (Rimegepant) for the Acute Treatment of Migraine • Actual Study Start Date: Jul. 26, 2017 • Primary Completion Date: Jan. 25, 2018 • Study Completion Date: Jan. 31, 2018 Arms and Interventions Outcome Measures Primary Outcome Measures: • 1. Pain Freedom of rimegepant (75 mg tablet) compared with placebo in the acute treatment of migraine will be measured using the number of evaluable subjects that report no pain at 2 hours post-dose. [Time Frame: Two hours post dose] • Pain will be measured on a 4 point Likert scale (0=none, 1=mild, 2=moderate, 3=severe) • 2. Freedom from the most bothersome symptom (MBS) of rimegepant (75 mg tablet) compared with placebo will be measured using the number of evaluable subjects that report the absence of their MBS at 2 hours post-dose. [Time Frame: Two hours post dose] • The MBS (nausea, phonophobia or photophobia) will measured using a binary scale (0=absent, 1=present). Secondary Outcome Measures: • 1. […] [Time Frame: 2 hours-24 hours post-dose] • Sustained Pain Freedom as measured by a 4 point numeric rating scale (None, Mild, Moderate, Severe) • 2. Rimegepant (75 mg tablet) compared to placebo by tabulating the number of subjects that report the absence of photophobia at 2 hours post-dose in the subset of subjects that reported the presence of photophobia at headache baseline. [Time Frame: 2 hours post-dose] • Freedom from Photophobia • 3. Rimegepant (75 mg tablet) compared to placebo by tabulating the number of subjects that report the absence of phonophobia at 2 hours post-dose in the subset of subjects that reported the presence of phonophobia at headache baseline. [Time Frame: 2 hours post-dose] • Freedom from Phonophobia • 4. To measure rimegepant (75 mg tablet) compared to placebo on Pain Relief, at 2 hours post-dose, that report a pain level of moderate or severe at baseline and then report a pain level of none or mild. [Time Frame: 2 hours post-dose] • Pain Relief as measured by a 4 point numeric rating scale (None, Mild, Moderate, Severe) • 5. Freedom from Nausea will by tabulating the number of subjects that report the absence of nausea at 2 hours post-dose in the subset of subjects that reported the presence of nausea at headache baseline. [Time Frame: 2 hours post-dose] • Freedom from Nausea • 6. To measure rimegepant (75 mg tablet) compared to placebo on the probability of requiring rescue medication will be assessed using the number of subjects that take rescue medication within […] administration of study medication (BHV3000 or placebo). [Time Frame: up to 24 hours post-dose] • Requiring Rescue Medication • 7. […] [Time Frame: 2 hours-48 hours post-dose] • Sustained Pain Freedom as measured by a 4 point numeric rating scale (None, Mild, Moderate, Severe) • 8. […] [Time Frame: 2 hours-24 hours post-dose] • Sustained Pain Relief as measured by a 4 point numeric rating scale (None, Mild, Moderate, Severe) • 9. […] [Time Frame: 2 hours-48 hours post-dose] • Sustained Pain Relief as measured by a 4 point numeric rating scale (None, Mild, Moderate, Severe) • 10. […]
# [1] = Study 302, single 75 mg tablet, listed as rimegepant
compound,measurement,setting,value
"N[C@@H]1c2cccnc2[C@H](OC(=O)N2CCC(n3c(=O)[nH]c4ncccc43)CC2)CC[C@H]1c1cccc(F)c1F [Rimegepant, [(5S,6S,9R)-5-amino-6-(2,3-difluorophenyl)-6,7,8,9-tetrahydro-5H-cyclohepta[b]pyridin-9-yl] 4-(2-oxo-3H-imidazo[4,5-b]pyridin-1-yl)piperidine-1-carboxylate]",SAEs related to the study drug,Study 302,No SAEs
same,bilirubin elevations greater than 2 times ULN,Study 302,no bilirubin elevations
same,transaminase level greater than 3 times ULN,Study 302,No subject
same,AE urinary tract infection,"Study 302, 8/543",1.5%
same,AE nausea,"Study 302, 10/543",1.8%
same,Serum ALT or AST levels greater than ULN,"Study 302, 13/543",2.4%
same,Percent (%) difference of Patients Pain Free: Rimegepant versus Placebo,"Study 302, 2 hours post single dose 75 mg",7%
same,Percent (%) difference of Patients Pain Free: Rimegepant versus Placebo,"Study 302, 3 hours post single dose 75 mg",13%
same,Percent (%) difference of Patients Pain Free: Rimegepant versus Placebo,"Study 302, 4 hours post single dose 75 mg",19%
same,Percent (%) difference of Patients Pain Free: Rimegepant versus Placebo,"Study 302, 6 hours post single dose 75 mg",22%
same,Percent (%) difference of Patients Pain Free: Rimegepant versus Placebo,"Study 302, 8 hours post single dose 75 mg",19%
same,functional disability: patients achieving normal function at 2 hours versus placebo,"Study 302, P<0.0001",greater proportion
same,"Serious AEs (SAEs), subjects","Study 302, back pain",1 subject
same,"Free from MBS at 2 hours, subjects [n/N]","Study 302, single 75 mg tablet",[202/537]
same,Nausea-free at 2 hours,"Study 302, single 75 mg tablet",48.1%
same,"Nausea-free at 2 hours, subjects [n/N]","Study 302, single 75 mg tablet",[171/355]
same,Pain relief at 2 hours,"Study 302, single 75 mg tablet",58.1%
same,"Pain relief at 2 hours, subjects [n/N]","Study 302, single 75 mg tablet",[312/537]
same,"Pain-free at 2 hours, subjects [n/N]","Study 302, single 75 mg tablet",[105/537]
same,Phonophobia-free at 2 hours,"Study 302, single 75 mg tablet",36.7%
same,"Phonophobia-free at 2 hours, subjects [n/N]","Study 302, single 75 mg tablet",[133/362]
same,Photophobia-free at 2 hours,"Study 302, single 75 mg tablet",37.4%
same,"Photophobia-free at 2 hours, subjects [n/N]","Study 302, single 75 mg tablet",[183/489]
same,"Sustained pain relief, 2-24 hours","Study 302, single 75 mg tablet",42.6%
same,"Sustained pain relief, 2-24 hours, subjects [n/N]","Study 302, single 75 mg tablet",[229/537]
same,Freedom from MBS at 2 hours,"Study 302, single 75 mg tablet",37.6%
same,Pain Freedom (pain-free) at 2 hours,"Study 302, single 75 mg tablet",19.6%
same,Freedom from MBS at 2 hours,[1],37.6%
same,Pain Freedom (pain-free) at 2 hours,[1],19.6%
same,Pain relief at 2 hours,[1],58.1%
same,sustained pain relief from 2 through 48 hours postdose versus placebo,"Study 302, single dose, no rescue medication, P<0.0001",superiority versus placebo
same,sustained pain freedom from 2 through 48 hours postdose versus placebo,"Study 302, single dose, no rescue medication, P=0.0181",superiority versus placebo
